Assay results reported in patent US20230159583A1, “COMPOUND FOR TREATING GOUT, PREPARATION METHOD THEREFOR, AND USE THEREOF” (Huazhong Pharmaceutical Co., Ltd., priority 2020, published 2023).
Read-outs that look alike come from different tables or passages of the source.

Columns and labels:
Assay type in all cases: in vivo
[1] = test system: rat paw swelling induced by monosodium urate (MSU); assay: rat paw swelling model induced by monosodium urate (MSU); details: for inhibition in vivo at 90 mg/kg / inhibition in vivo at 0.36 mg/kg / inhibition in vivo at 1.8 mg/kg / inhibition in vivo at 9 mg/kg / change in vivo at 90 mg/kg: Rattus norvegicus, po; for inhibition in vivo at 90 mg/kg / inhibition in vivo at 0.36 mg/kg / inhibition in vivo at 1.8 mg/kg / inhibition in vivo at 9 mg/kg: 1 h, read-out: Swelling inhibition rate; for inhibition in vivo at 0.36 mg/kg: dosage 0.36 mg/kg; for inhibition in vivo at 1.8 mg/kg: dosage 1.8 mg/kg; for inhibition in vivo at 9 mg/kg: dosage 9 mg/kg; for change in vivo at 90 mg/kg: read-out: Swelling degree; for Mean volume of paw after administration: 1 h after onset of inflammation (50 μL 2% MSU)
Text: Gout is a disease unique to human, and gouty arthritis is an inflammatory reaction caused by the deposition of monosodium urate (MSU) in local joint tissues. Since purine metabolism pathways in some mammals such as mice and rabbits are different from those in humans, it is impossible to construct a gouty arthritis model by the method of interfering with purine metabolism disorders, so the most direct method for causing gouty arthritis is to directly inject MSU into the joint cavity of the model animal. The model is only used for simulating local joint inflammation of gout, is suitable for observation of local arthritis symptoms, is a common method for screening anti-inflammatory effects of gout drugs at present, and has the advantages of stability, easy operation and the like. (Reference: Li Na, Hua Long, and Yuan Hui. Research progress of gout animal models [J]. Medical theory and practice, 2016(24).
The anti-gout effect of the compound prepared in the above Example was detected by using a rat paw swelling model induced by monosodium urate (MSU), and the control sample was methylprednisolone.
Experimental method: MSU was used as an inflammatory agent, injected subcutaneously into the hind paws of rats to cause paw swelling, and then the volume of the paws was measured, and the swelling rates and swelling inhibition rates of the treatment group and the control group were compared. On the day of the experiment, the volume of right hind paw (ml) of each rat was measured firstly, and then after the onset of inflammation, the volume of right hind paw was measured so that the difference of volume of paw before and after inflammation was swelling degree, and the swelling inhibition rate of paw (swelling inhibition rate %=(C−T)/C*100%); C=swelling rate of the control group %, and T=swelling rate of the treatment group) was calculated. This method is one of the commonly used methods for screening anti-inflammatory effects of gout drugs, and the model is stable and easy to operate.
(2) One week before the subcutaneous injection of MSU into the feet and soles of the rats, the rats were given different doses of the test drugs, and the drugs were given by gavage once a day, for seven consecutive days. The circumference of the right hind paw was marked and measured before the last administration, and the average value of the two measurements was taken as the standard. 1 h after the last administration, animals in other groups were given 50 μL of 2% MSU in addition to the blank control group, and the paw circumference was measured 1 h after the onset of inflammation. […]

[2] = test system: carrageenan-induced mouse paw swelling; assay: carrageenan-induced mouse paw swelling model; details: for Circumference of the paw after administration: 180 min after onset of inflammation (0.5% carrageenan); for inhibition in vivo at 0.26 mg/kg / inhibition in vivo at 13 mg/kg / inhibition in vivo at 130 mg/kg / change in vivo at 130 mg/kg: Mus musculus, po, 3 h; for inhibition in vivo at 0.26 mg/kg: dosage 0.26 mg/kg; for inhibition in vivo at 0.26 mg/kg / inhibition in vivo at 13 mg/kg / inhibition in vivo at 130 mg/kg: read-out: Swelling inhibition rate; for inhibition in vivo at 13 mg/kg: dosage 13 mg/kg; for change in vivo at 130 mg/kg: read-out: Swelling degree
Protocol: The anti-inflammatory effects of the compounds prepared in the above Examples were detected using a carrageenan-induced mouse paw swelling model, and the control sample was methylprednisolone:
Carrageenan-induced mouse paw swelling model is a classical acute inflammation model commonly used for evaluating or screening anti-inflammatory effects of drugs. When carrageenan is injected into the paw of mice, a series of reactions similar to human acute inflammation such as local capillary dilatation, increased vascular permeability, exudation and edema can be caused, so the model can be widely used in the evaluation of new drugs.
Reference for experimental method: Yang Huan, Cheng Xiao, Wang Yuehua, Du Guanhua. Effects of esculin on the swelling of toes and inflammation induced by carrageenan in mice [J]. Chinese Journal of New Drugs, 2016(25):2322.
On the day of the experiment, the circumference of right hind paw (cm) of each mouse was measured firstly, and then, after the onset of inflammation, the circumference of right hind paw was measured so that the difference of the circumferences of the paws before and after inflammation was swelling degree, and the swelling inhibition rate of paw (swelling inhibition rate %=(C−T)/C*100%); C=swelling rate of the control group %, and T=swelling rate of the treatment group) was calculated.
(2) Gavage administration was performed once a day for seven consecutive days. The circumference of the right hind paw was marked and measured before the last administration, and the average value of the two measurements was taken as the standard. 30 min after the last administration, 20 μL/mice of 0.5% carrageenan was injected into the right hind ankle of the mice to induce inflammation, and the circumference of paw was measured 180 min after the onset of inflammation. […]

ICR mice = details: p.o.
Protocol: The experiment was designed according to the “Technical Guideline for Acute Toxicity Test of Chemical Drugs” issued by the State Food and Drug Administration in March 2005. The doses administered were 4 g/kg, 4.91 g/kg, 6.14 g/kg, 7.68 g/kg, 9.6 g/kg, 12 g/kg, and 15 g/kg (the dose could be adjusted according to the actual test results), 12 ICR mice per dose group. If the administration volume is greater than 0.5 ml, it is better to perform the drug administration in two or more times (Note: according to the national standard GB 15193.3-2014, if multiple drug administrations are required, the time interval should be 4 h to 6 h each time, and the patient should be fasted on the day before drug administration).

[3] = SD rats, 90 mg/kg by gavage once a day for seven days, 1 h after onset of inflammation
[4] = rat, MSU-induced paw swelling, dosage 90 mg/kg
[5] = SD rats, 90 mg/kg by gavage once a day for seven days
[6] = ICR mice, 130 mg/kg by gavage once a day for seven days, 180 min after onset of inflammation
[7] = ICR mice, 130 mg/kg by gavage once a day for seven days
[8] = mouse, carrageenan-induced paw swelling
[9] = mouse, carrageenan-induced paw swelling, dosage 130 mg/kg

SMILES	inhibition in vivo at 90 mg/kg [1, 3]	inhibition in vivo at 0.36 mg/kg ([1]; rat, MSU-induced paw swelling)	inhibition in vivo at 1.8 mg/kg ([1]; rat, MSU-induced paw swelling)	inhibition in vivo at 9 mg/kg ([1]; rat, MSU-induced paw swelling)	inhibition in vivo at 90 mg/kg [1, 4]	change in vivo at 90 mg/kg [1, 3]	Swelling value [1, 3]	Mean volume of paw after administration [1, 5]	Swelling value [2, 6]	Circumference of the paw after administration [2, 7]	inhibition in vivo at 0.26 mg/kg [2, 8]	inhibition in vivo at 13 mg/kg [2, 8]	inhibition in vivo at 130 mg/kg [2, 9]	change in vivo at 130 mg/kg [2, 6]	inhibition in vivo at 130 mg/kg [2, 6]	Mortality (ICR mice; 4 g/kg)	Mortality (ICR mice; 4.91 g/kg)	Mortality (ICR mice; 6.14 g/kg)	Mortality (ICR mice; 7.68 g/kg)	Mortality (ICR mice; 9.6 g/kg)	other results
CC(=O)OC/C(=N\O)[C@@]1(O)CC[C@H]2[C@@H]3CCC4=CC(=NO)CC[C@]4(C)[C@H]3[C@@H](O)C[C@@]21C [Example 5, (2E)-2-((8S,9S,10R,11S,13S,14S,17R)-11,17-dihydroxy-3-(hydroxyimino)-10,13-dimethyl-2,3,6,7,8,9,10,11,12,13,14,15,16,17-tetrahydro-1H-cyclopentane[α]phenanthroyl)-2-(hydroxyimino)ethyl acetate]	82.1%	23.4%	35.3%	56.3%	80.1%	59%	0.72 mL	1.94 mL	0.04 cm	1.52 cm	13.5%	56.8%	88.1%	2.7%	86%	0/12	0/12	0/12	0/12	1/12	Mortality (ICR mice; 12 g/kg): 2/12; Mortality (ICR mice; 15 g/kg): 4/12
CC1(C)O[C@@H]2C[C@H]3[C@@H]4C[C@H](F)C5=CC(=NO)C=C[C@]5(C)[C@@]4(F)[C@@H](O)C[C@]3(C)[C@]2(/C(CO)=N/O)O1 [Example 8, (2S,6aS,6bR,7S,8aS,8bR,11aR,12aS,12bS)-2,6b-difluoro-7-hydroxy-8b-((E)-2-hydroxy-1-(hydroxyimino)ethyl)-6a,8a,10,10-tetramethyl-1,2,6a,6b,7,8,8a,8b,11a,12,12a,12b-dodecahydro-4H-naphtho[2′,1′:4,5]indeno[1,2-d][1,3]dioxol-4-one oxime]	91.8%	17.2%	32.1%	41.2%	93.5%	26.8%	0.33 mL	1.56 mL	0.02 cm	1.49 cm	24.5%	46.8%	93.2%	1.36%	93%	0/12	0/12	0/12	0/12	0/12	Mortality (ICR mice; 12 g/kg): 0/12; Mortality (ICR mice; 15 g/kg): 1/12
C[C@@H]1C[C@H]2[C@@H]3CCC4=CC(=NO)C=C[C@]4(C)[C@H]3[C@@H](O)C[C@]2(C)[C@H]1/C(CO)=N/O [Example 10]	68.9%	9.21%	32.1%	51.2%	65.2%	102%	1.24 mL	2.45 mL	0.11 cm	1.58 cm	8.12%	30.9%	62.4%	7.48%	61.3%	0/12	0/12	1/12	1/12	3/12	Mortality (ICR mice; 12 g/kg): 4/12; Mortality (ICR mice; 15 g/kg): 5/12
CCON=C1C=C[C@@]2(C)C(=C1)CC[C@@H]1[C@@H]2[C@@H](O)C[C@@]2(C)[C@H]1C[C@@H](C)[C@]2(O)/C(COC(C)=O)=N/OCC [Example 11]	64.7%	10.2%	35.2%	49%	67.5%	116%	1.42 mL	2.64 mL	0.1 cm	1.53 cm	15.5%	35.8%	68.1%	6.99%	63.9%	0/12	0/12	0/12	0/12	0/12	Mortality (ICR mice; 12 g/kg): 0/12; Mortality (ICR mice; 15 g/kg): 0/12
CCC(=O)OC/C(=N\O)[C@@]1(O)[C@H](O)C[C@H]2[C@@H]3CCC4=CC(=NO)C=C[C@]4(C)[C@@]3(F)[C@@H](O)C[C@@]21C [Example 14, (2E)-2-((8S,9R,10S,11S,13S,14S,16R,17R)-9-fluoro-11,16,17-trihydroxy (hydroxyimino)-10,13-dimethyl-6,7,8,9,10,11,12,13,14,15,16,17-dodecahydro-3H-cyclopentane[α]phenanthrene-17-yl)-2-(hydroxyimino)ethyl propionate]	85.6%	5.23%	34.2%	65.2%	86.3%	47.5%	0.56 mL	1.74 mL	0.03 cm	1.45 cm	20.3%	49.2%	92.1%	2.11%	89.1%	0/12	0/12	0/12	0/12	1/12	Mortality (ICR mice; 12 g/kg): 1/12; Mortality (ICR mice; 15 g/kg): 3/12
